Measurements taken from patent US11104933B1, “Compositions and methods for determining the presence of active leukocyte cells using an electrochemical assay” (Cleu Diagnostics, LLC, priority 2016, dated 2021).

What was measured:
[1] = system: leukocyte esterase (LE); experiment: internally calibrated electrochemical continuous enzyme assay (ICECEA) with TAPTA as enzyme substrate; format: biochemical; settings: LE concentrations 0-250 μg/L, amperometric current (FIG. 4)
Method: ICECEAs generally follow the following method as described in U.S. 201610040209. First, an enzyme substrate (e.g. an LE and/or HNE substrate of the present disclosure) is placed in a background electrolyte. Next, a reactant or product of an enzymatic reaction of the enzyme is added to the first enzyme substrate/background electrolyte, which creates what is described as a “first assay mixture.” Current flowing through an electrode of the electrochemical assay is then measured after the first assay mixture is formed. Next, the enzyme (e.g. LE and/or HNE) is added to the “first assay mixture” to create a “second assay mixture,” and the current is measured again over a predetermined time period. Enzyme activity is determined based on the change in current over time caused by the addition of the enzyme. […]
The ICECEA includes an electrochemical measuring device. […] The current is measured through the working electrode. […]
Generally, in an ICECEA, adding the reactant/product to the enzyme substrate (in electrolyte) in the electrochemical assay system includes the following steps. […] Current flowing through an electrode of the electrochemical assay system is measured after the first aliquot is added. One or more additional aliquots of the reactant/product are added to the mixture and current flowing through an electrode of the electrochemical assay system is measured again. […]

[2] = system: leukocyte esterase (LE); experiment: screen-printed electrode strip with monoester substrate, voltammograms at varying LE concentrations; format: biochemical; settings: substrate screen-printed on electrode strip; 0.125 U/m to 0.35 U/ml LE (FIG. 7)
Text: In one embodiment, the substrate of the leukocyte esterase enzyme is screen-printed onto the surfaces of an electrode sensor strips using known and commercially-available techniques and materials.
Specifically, electrode strips were screen printed with the substrate having the structure as depicted in Formula V. The strips were contacted with varying concentrations of LE (i.e. 0.125 U/m to 0.35 U/ml LE).
The plot clearly indicates significant reduction peaks at about −0.17 V, which correspond to the redox reaction of hydroquinone molecules that are released upon cleavage of the monoester by leukocyte esterases at the ester active site. […] Based on this measured level, a determination can be made as to whether the patient's level of LE is high enough to indicate infection.

Row | Structure (SMILES) | response of LE enzyme activity relative to LE concentration [1] | relation of reduction peaks to LE activity in the sample [2] | melting point [°C]
1 | Cc1ccc(S(=O)(=O)N[C@@H](C)C(=O)Oc2ccc(OC(=O)[C@H](C)NS(=O)(=O)c3ccc(C)cc3)cc2)cc1 [TAPTA, 4-((tosyl-L-alanyl)oxy)phenyl tosyl-L-alaninate] | linear response relative to LE concentration |  | 
2 | COC(=O)c1cncc(S(=O)(=O)N[C@@H](C)C(=O)Oc2ccc(O)cc2)c1 [monoester] |  | directly related to the LE activity within the sample in a dose dependent manner | 113 to 116
